Test results as given in patent US20200087248A1, “Fluoroallylamine Derivative And Use Thereof” (SICHUAN KELUN-BIOTECH BIOPHARMACEUTICAL CO., LTD., priority 2017, published 2020).
Counter-ions that a name gives are not always drawn.

Columns and labels:
hERG = target: T1, hERG (Homo sapiens, UniProt Q12809); test: hERG fluorescence polarization inhibition experiment; settings: hERG cell membrane, 25° C. 2 hours, read-out: hERG (IC50 range, competitive binding vs tracer)
T1 construct: purchased ThermoFisher; host or cells: hERG cell membrane supplied with the kit
T1 sequence (Q12809 whole entry): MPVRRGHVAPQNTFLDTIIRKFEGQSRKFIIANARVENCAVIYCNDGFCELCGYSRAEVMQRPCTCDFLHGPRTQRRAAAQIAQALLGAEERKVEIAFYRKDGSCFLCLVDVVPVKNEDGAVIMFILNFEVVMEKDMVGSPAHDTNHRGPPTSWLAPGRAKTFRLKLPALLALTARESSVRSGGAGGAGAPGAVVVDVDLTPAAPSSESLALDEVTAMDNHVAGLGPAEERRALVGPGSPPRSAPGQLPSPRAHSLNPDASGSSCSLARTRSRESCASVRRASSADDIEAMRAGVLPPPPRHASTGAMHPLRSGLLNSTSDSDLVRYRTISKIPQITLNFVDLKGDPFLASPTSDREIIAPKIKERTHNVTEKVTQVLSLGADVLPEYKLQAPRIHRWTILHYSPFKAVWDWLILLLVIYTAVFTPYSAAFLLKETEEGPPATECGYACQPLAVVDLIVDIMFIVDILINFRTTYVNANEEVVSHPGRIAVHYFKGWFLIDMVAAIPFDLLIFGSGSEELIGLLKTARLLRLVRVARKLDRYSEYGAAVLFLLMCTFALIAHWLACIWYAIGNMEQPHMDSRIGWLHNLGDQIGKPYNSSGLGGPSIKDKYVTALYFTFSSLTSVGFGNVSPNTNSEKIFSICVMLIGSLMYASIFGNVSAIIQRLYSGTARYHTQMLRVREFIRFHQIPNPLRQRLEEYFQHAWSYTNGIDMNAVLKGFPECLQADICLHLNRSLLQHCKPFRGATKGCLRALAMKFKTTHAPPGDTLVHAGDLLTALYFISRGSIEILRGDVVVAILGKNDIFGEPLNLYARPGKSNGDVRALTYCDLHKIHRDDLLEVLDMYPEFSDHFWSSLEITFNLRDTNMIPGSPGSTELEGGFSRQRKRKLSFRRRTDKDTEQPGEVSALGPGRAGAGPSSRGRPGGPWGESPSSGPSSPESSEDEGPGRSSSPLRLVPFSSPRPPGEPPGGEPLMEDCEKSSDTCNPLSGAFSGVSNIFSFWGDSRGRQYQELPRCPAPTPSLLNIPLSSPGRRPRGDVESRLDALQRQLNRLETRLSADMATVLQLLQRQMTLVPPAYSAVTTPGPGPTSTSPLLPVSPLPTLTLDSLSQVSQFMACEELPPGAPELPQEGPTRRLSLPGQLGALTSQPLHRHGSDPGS
Protocol: hERG (Ether-a-go-go-related Gene Potassium Channel) Inhibition Experiment
Reagent: Predictor™ hERG Fluorescence Polarization Assay Kit, Manufacturer: ThermoFisher
The above test kit was used to evaluate the potential of the compound for inducing heart QT prolongation. According to the method as indicated in the specification of the test kit, the test compound, the positive control (E4031) and negative control (Experimental buffer solution) in the kit were added to a microwell plate containing hERG cell membrane, and then a tracer having high affinity to hERG was added. The microwell plate was then incubated at 25° C. for 2 hours, a BMG PHAREStar polyfunctional enzyme marker was used to test the variations in the fluorescent polarization value. By calculating the percent inhibition rates (%) at different concentrations, the range of the half inhibition concentration (IC50) was determined:
Percent inhibition rate (%)=(1-(mP of the test compound-mP of 30 μM E4031)/(mP of experimental buffer solution-mP of 30 μM E4031))*100.

VAP-1 = target: T2, VAP-1 (Homo sapiens, UniProt Q16853); test: Inhibition of the enzymatic activity of VAP-1 in vitro (Amplex Red); type: biochemical; settings: VAP-1 protein about 20 nM, 10 min pre-incubation, benzylamine substrate; read-out: IC50, inhibition against the enzymatic activity of VAP-1
T2 construct: purchased R&D Systems
T2 sequence (Q16853 1-763): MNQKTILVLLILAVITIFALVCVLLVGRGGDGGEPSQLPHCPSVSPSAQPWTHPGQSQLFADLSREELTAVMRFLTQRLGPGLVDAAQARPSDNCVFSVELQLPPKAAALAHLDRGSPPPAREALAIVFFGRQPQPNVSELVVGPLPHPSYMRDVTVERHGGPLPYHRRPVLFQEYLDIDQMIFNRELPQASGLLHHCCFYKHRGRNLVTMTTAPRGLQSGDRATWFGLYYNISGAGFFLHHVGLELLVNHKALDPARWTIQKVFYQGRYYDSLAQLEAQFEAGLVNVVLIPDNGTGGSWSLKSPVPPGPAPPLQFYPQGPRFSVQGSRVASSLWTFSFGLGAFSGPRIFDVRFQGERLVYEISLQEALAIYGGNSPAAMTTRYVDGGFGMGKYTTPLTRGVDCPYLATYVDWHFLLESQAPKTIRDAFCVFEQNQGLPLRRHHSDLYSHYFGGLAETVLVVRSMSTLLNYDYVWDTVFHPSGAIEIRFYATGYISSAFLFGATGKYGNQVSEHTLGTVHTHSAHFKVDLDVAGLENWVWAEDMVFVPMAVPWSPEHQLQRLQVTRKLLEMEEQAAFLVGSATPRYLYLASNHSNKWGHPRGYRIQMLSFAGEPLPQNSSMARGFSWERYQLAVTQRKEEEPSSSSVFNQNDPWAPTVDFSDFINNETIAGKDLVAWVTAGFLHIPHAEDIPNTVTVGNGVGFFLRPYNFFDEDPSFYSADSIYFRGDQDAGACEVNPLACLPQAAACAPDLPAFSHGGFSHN
Protocol: Inhibition Experiment Against the Enzymatic Activity of VAP-1(Vascular Adhesion Protein 1) in vitro
(§1) Test kit: Amplex® Red Monoamine Oxidase Assay, Manufacturer: ThermoFisher
(§2) Reaction buffer solution: 50 mM PBS, pH 7.4
Enzyme: VAP-1, Manufacturer: R&D Systems
VAP-1 protein (about 20 nM) and different concentrations of the test compound were pre-incubated at room temperature for 10 minutes, followed by an addition of […] benzylamine hydrochloride, 1 U/mL HRP and 200 μM Amplex Red reagent according to the specification of the test kit to start the reaction. The reaction plate was placed in the enzyme marker, and in kinetic mode, fluorescence signals were measured at Ex/Em=540/590 nm. The relative inhibition activity of each concentration group was calculated, wherein the ratio (slope) of fluorescence signal to reaction time in the linear range is the reaction rate, the vehicle group (DMSO) is the negative control, and the reaction buffer solution group (without enzymes and the compounds) is the blank control. The half inhibition concentration (IC50) of the compound was calculated according to four-parameter model fitting curve.

[1] = target: T3, VAP-1 in abdominal fat of mice (Mus musculus, UniProt O70423); test: Inhibition of the enzymatic activity of VAP-1 ex-vivo, abdominal fat after oral dosing; type: in vivo, BALBc mice; settings: abdominal fat collected after six hours; for inhibition at 2 mg/kg / inhibition at 0.5 mg/kg: mouse, read-out: Inhibition rate (%) against the enzymatic activity of VAP-1 (ex-vivo); for inhibition at 2 mg/kg / Inhibition rate (%) against the enzymatic activity of VAP-1 (ex-vivo): 2 mg/kg oral; for inhibition at 0.5 mg/kg: 0.5 mg/kg oral
T3 construct: abdominal fat was collected and homogenized; from tissue; host or cells: abdominal fat of BALBc mice (homogenate supernatant)
T3 sequence (O70423 1-765): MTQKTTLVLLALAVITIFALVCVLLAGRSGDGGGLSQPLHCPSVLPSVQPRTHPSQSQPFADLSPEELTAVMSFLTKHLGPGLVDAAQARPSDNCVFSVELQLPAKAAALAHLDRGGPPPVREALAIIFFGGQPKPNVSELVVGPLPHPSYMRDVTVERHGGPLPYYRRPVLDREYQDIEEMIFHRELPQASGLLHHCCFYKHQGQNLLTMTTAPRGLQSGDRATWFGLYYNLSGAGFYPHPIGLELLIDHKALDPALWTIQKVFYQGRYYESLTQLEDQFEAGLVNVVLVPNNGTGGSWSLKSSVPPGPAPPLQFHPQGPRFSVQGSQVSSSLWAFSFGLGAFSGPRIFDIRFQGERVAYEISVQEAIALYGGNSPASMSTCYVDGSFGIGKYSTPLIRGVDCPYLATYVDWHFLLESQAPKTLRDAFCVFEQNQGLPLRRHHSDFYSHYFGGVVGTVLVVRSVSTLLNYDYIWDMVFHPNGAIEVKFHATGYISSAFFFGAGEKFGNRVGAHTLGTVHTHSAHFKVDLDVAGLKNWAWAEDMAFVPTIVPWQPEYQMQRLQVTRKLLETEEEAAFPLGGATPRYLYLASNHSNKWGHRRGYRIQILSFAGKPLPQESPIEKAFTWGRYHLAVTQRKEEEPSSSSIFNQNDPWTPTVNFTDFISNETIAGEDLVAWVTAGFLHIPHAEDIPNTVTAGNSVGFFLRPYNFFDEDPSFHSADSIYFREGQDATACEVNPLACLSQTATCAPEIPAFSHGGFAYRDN
Protocol: Inhibition Experiment Against the Enzymatic Activity (ex-vivo)
Tissue homogenate buffer solution (20 mM HEPES, pH 7.2, 1 mM EDTA, 250 mM sucrose, PMSF 0.2 mM)
as §2, §1
BALBc mice were administrated orally with different doses of the test compound, and the vehicle group was used as the control group. After six hours, abdominal fat was collected and homogenized at 1:20 (w/v) with the pre-cooled homogenate buffer solution, and thereafter, the homogenate was centrifuged at 10,000 g and 4° C. or 10 minutes, the supernatant was collected and stored at -80° C. for further use.
A test sample was diluted with the reaction buffer solution and successively added with the inhibition solution A: 1 μM Clorgyline+1 μM pargylin, to inhibit the activities of MAO-A and MAO-B, and the inhibition solution B: 1 μM Clorgyline+1 μM Pargylin+1 μM Mofegiline as the blank control, and after being incubated at room temperature for 20 min, 500 μM benzylamine hydrochloride, 1 U/mL HRP and 200 μM Amplex Red reagent were added to start the reaction. By referring to the method in “Experiment of inhibiting the enzymatic activity of VAP-1”, relative activity of each dose group was calculated, wherein the ratio of the fluorescent signal to reaction time in the linear range is the reaction rate, and the vehicle group is the positive control, thereby to study the inhibition of the compound against the enzymatic activity of VAP-1 in abdominal fat of mice.

Row | SMILES | IC50 (hERG) [nM] | IC50 (VAP-1) [nM] | inhibition at 2 mg/kg [1] [%] | Inhibition rate (%) against the enzymatic activity of VAP-1 (ex-vivo) [1] | inhibition at 0.5 mg/kg [1] [%]
1 | NCC(=CF)COc1ccc(C(=O)Nc2ccc(F)cc2)cc1 [TM61, N-(4-fluorophenyl)-4-((2-aminomethyl-3-fluoroallyl)oxy)-benzamide trifluoroacetate] | > 10000 | 0.5 | 99.7 ± 8.7 | – | –
2 | NCC(=CF)COc1ccc(-c2nc3ccc(Cl)cc3s2)cc1 [TM41, 2-(4-(6-chloro-benzothiazol-2-yl)phenoxymethyl)-3-fluoroallylamine trifluoroacetate] | – | 4.8 ± 0.7 | 96.1 ± 17.4 | – | –
3 | NCC(=CF)COc1ccc2c(c1)CCNC2=O.O=C(O)C(F)(F)F [TM26, 6-((2-aminomethyl-3-fluoroallyl)oxy)-3,4-dihydroisoquinolin-1(2H)-one trifluoroacetate] | > 30000 | 5.8 ± 1 | 112 ± 7.1 | completely inhibited | –
4 | NCC(=CF)COc1ccc2c(c1)CN(Cc1ccc(Cl)cc1)C2=O [TM33, 5-((2-aminomethyl-3-fluoroallyl)oxy)-2-(4-chlorobenzyl)isoindolin-1-one] | – | 3.3 ± 0.2 | 105 ± 9.1 | completely inhibited | –
5 | NCC(=CF)COc1ccc(-c2nc3ccccc3[nH]2)cc1.O=C(O)C(F)(F)F [TM42, 2-(4-(1H-benzoimidazol-2-yl)phenoxymethyl)-3-fluoroallylamine trifluoroacetate] | > 10000 | 1.6 ± 0.2 | 106 ± 8.4 | completely inhibited | –
6 | NCC(=CF)COc1ccc(C(=O)N2CCc3ccccc3C2)cc1 [TM45, (4-((2-aminomethyl-3-fluoroallyl)oxy)phenyl)-(3,4-dihydroisoquinolin-2(1H)-yl)methanone trifluoroacetate] | > 10000 | 0.9 ± 0.1 | 91.9 ± 6.4 | – | –
7 | NC/C(=C/F)COc1ccc(-c2ncccn2)cc1 [TM39-Z, (Z)-2-(4-(2-pyrimidyl)phenoxymethyl)-3-fluoroallylamine trifluoroacetate] | > 10000 | 0.7 ± 0.1 | – | – | 93.2 ± 3.9
8 | Cc1csc(-c2ccc(OCC(=CF)CN)cc2)n1 [TM70, 2-(4-(4-methylthiazolyl-2-phenoxy)methyl)-3-fluoroallylamine trifluoroacetate] | > 30000 | 0.2 | – | – | –
9 | NC/C(=C/F)COc1ccc(-c2nc3ccccc3[nH]2)cc1 [TM42-Z, (Z)-2-(4-(1H-benzoimidazol-2-yl)phenoxymethyl)-3-ftuoroallylamine trifluoroacetate] | > 10000 | 1.5 ± 0.1 | – | – | –
10 | NC/C(=C/F)COc1ccc(C(=O)Nc2ccccc2)cc1 [TM1-Z, (Z)-N-phenyl-4-((2-aminomethyl-3-fluoroallyl)oxy)-benzamide trifluoroacetate] | > 10000 | 0.7 ± 0.1 | – | – | 93.3 ± 5.4
11 | NC/C(=C\F)COc1ccc(C(=O)N2CCc3ccccc3C2)cc1 [TM45-E, (E)-(4-((2-aminomethyl-3-fluoroallyl)oxy)phenyl)-(3,4-di hydroisoquinoline-2 (1H)-yl)methanone trifluoroacetate] | > 10000 | 2.4 ± 0.7 | – | – | –
12 | NCC(=CF)COc1ccc(C(=O)N2CCC(c3ccccc3)CC2)cc1 [TM44, (4-((2-aminomethyl-3-fluoroallyl)oxy)phenyl)-(4-phenylpiperidin-1-yl)methanone trifluoroacetate] | > 10000 | 3.4 ± 0.4 | 95.8 ± 6.2 | – | –
